From patent publication US9751881B2, “Inhibitors of the renal outer medullary potassium channel” (Merck Sharp & Dohme Corp., priority 2013, dated 2017)
Structures can show the parent of a compound that is named as a salt.

Target: hROMK (hKir1.1) (Homo sapiens (Human), UniProt P48048)
Test: Thallium Flux Assay (ROMK channel functional thallium flux, FLIPR-Tetra)
Assay type: cell-based
Conditions: HEK293 cells stably expressing hROMK (hKir1.1); unit not given in Table 4 (IC50 potencies less than 1 μM); read-out: ROMK TI IC50
Experimental: Cell Culture Conditions—HEK293 cells stably expressing hROMK (hKir1.1) were grown at 37° C. in a 10% CO2 humidified incubator in complete growth media: Dulbecco's Modified Eagle Medium supplemented with non-essential amino acids, Penicillin/Streptomycin/Glutamine, G418 and FBS. At >80% confluency, the media was aspirated from the flask and rinsed with 10 mL calcium/magnesium-free PBS. […] To dislodge the cell, the side of the flask was gently banged with one's hand. The cells completely titrated and then the cells were transferred to 25 mL complete media, centrifuged at 1,500 rpm for 6 min followed by resuspension in complete growth media and determine cell concentration. […] Under ideal growth conditions and appropriate tissue culture practices, this cell line is stable for 40-45 passages.
FluxOR Kit Components (Invitrogen F10017)
• FluxOR™ Reagent (Component A) • FluxOR™ Assay Buffer (Component B)—10× Concentrate • PowerLoad™ Concentrate (Component C)—100× Concentrate • Probenecid (Component D)—Lyophilized sample is kept at −20° C. Water soluble, 100× after solubilization in 1 mL water. […] Store at 4° C. • Thallium sulfate (Tl2SO4) Concentrate (Component G)—50 mM in water. […] Can be stored at room temperature • Stimulant Buffer (prepared at 5× final concentration in 1× FluxOR™Chloride-Free Buffer): 7.5 mM thallium sulfate and 0.75 mM potassium sulfate (to give a final assay concentration of 3 mM Thallium/0.3 mM potassium). Store at 4° C. when not in use. If kept sterile, this solution is good for months.
• 1. Seed HEK-hKir1.1 cells (50 μl at 20,000 cells/well) in 384-well PDL coated Microplates • 2. Allow cells to adhere overnight in humidified 37° C./10% CO2 incubator • 3. Completely remove cell growth media from microplate and replace with 25 μl loading buffer • 4. Incubate Microplate at room temperature, protected form light, for 90 min • 5. Remove loading buffer and replace with 25 μl 1× Assay Buffer±test compound. • 6. Incubate microplate at room temperature, protected from light, for 30 min • 7. […] Excitation=400 nm, Emission=460 & 580 nm. Collect data for ˜10 min.
Data Calculation—The fluorescence intensity of wells containing 3 μM of a standard control ROMK inhibitor of the present invention was used to define the ROMK-sensitive component of thallium flux. Fluorescence in the presence of test compounds was normalized to control values to provide % fluorescence change.

Sequence of hROMK (hKir1.1) (P48048 whole entry): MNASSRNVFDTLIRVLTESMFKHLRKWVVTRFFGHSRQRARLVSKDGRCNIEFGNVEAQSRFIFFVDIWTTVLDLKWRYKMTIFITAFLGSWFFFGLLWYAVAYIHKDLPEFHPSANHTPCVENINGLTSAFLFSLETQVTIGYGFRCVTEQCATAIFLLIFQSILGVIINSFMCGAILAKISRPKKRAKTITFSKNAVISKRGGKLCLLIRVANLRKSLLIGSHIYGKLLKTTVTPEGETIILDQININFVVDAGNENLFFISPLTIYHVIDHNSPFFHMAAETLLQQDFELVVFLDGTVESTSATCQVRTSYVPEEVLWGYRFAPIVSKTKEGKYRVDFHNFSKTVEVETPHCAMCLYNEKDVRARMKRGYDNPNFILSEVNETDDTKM

SMILES	IC50 [nM]
Cc1c([C@@H](O)CN2CCC3(CCN(c4ccc(C#N)cn4)CC3)C2)ccc2c1COC2=O [Example 53, (R)-6-(2-(2-Hydroxy-2-(4-methyl-1-oxo-1,3-dihydroisobenzofuran-5-yl)ethyl)-2,8-diazaspiro[4.5]decan-8-yl)nicotinonitrile]	19
Cc1c([C@@H](O)CN2CCC3(CC2)CCN(c2ccc(S(C)(=O)=O)cc2)C3=O)ccc2c1COC2=O [Example 75, 8-[(2R)-2Hydroxy-2-(4-methyl-1-oxo-1,3-dihydro-2-benzofuran-5-yl)ethyl]-2-[4-(methylsulfonyl)phenyl]-2,8-diazaspiro[4.5]decan-1-one hydrochloride]	85.2
Cc1c([C@@H](O)CN2CCC3(CC2)CCN(c2cncc(C#N)c2)C3)ccc2c1COC2=O [Example 12, (R)-5-(8-(2-Hydroxy-2-(4-methyl-1-oxo-1,3-dihydroisobenzofuran-5-yl)ethyl)-2,8-diazaspiro[4.5]decan-2-yl)nicotinonitrile]	33
Cc1c([C@@H](O)CN2CCC3(CC2)CC(=O)N(c2ccc(S(C)(=O)=O)cn2)C3)ccc2c1COC2=O [Example 34, (R)-8-(2-Hydroxy-2-(4-methyl-1-oxo-1,3-dihydroisobenzofuran-5-yl)ethyl)-2-(5-(methylsulfonyl)pyridin-2-yl)-2,8-diazaspiro[4.5]decan-3-one]	53.4
COc1cc(C(O)CN2CCC3(CC2)CCN(c2ccc(S(C)(=O)=O)cn2)C3)c(Cl)cc1C#N (stereo not drawn) [Example 40, 5-Chloro-4-(1-hydroxy-2-(2-(5-(methylsulfonyl)pyridin-2-yl)-2,8-diazaspiro[4.5]decan-8-yl)ethyl)-2-methoxybenzonitrile]	168
CCS(=O)(=O)c1ccc(N2CCC3(CCN(C[C@H](O)c4ccc5c(c4C)COC5=O)CC3)C2)cn1 [Example 30, (R)-5-(2-(2-(6-(Ethylsulfonyl)pyridin-3-yl)-2,8-diazaspiro[4.5]decan-8-yl)-1-hydroxyethyl)-4-methylisobenzofuran-1(3H)-one]	271
Cc1cc2c(cc1C(O)CN1CCC3(CC1)CCN(c1ccc(C#N)cn1)C3)COC2=O (single isomer, unassigned) [Example 24A, 6-(8-(2-Hydroxy-2-(6-methyl-1-oxo-1,3-dihydroisobenzofuran-5-yl)ethyl)-2,8-diazaspiro[4.5]decan-2-yl)nicotinonitrile]	17.6
Cc1cc(N2CCC3(CCN(C[C@H](O)c4ccc5c(c4C)COC5=O)CC3)C2)cnc1S(C)(=O)=O [Example 23, (R)-5-(1-Hydroxy-2-(2-(5-methyl-6-(methylsulfonyl)pyridin-3-yl)-2,8-diazaspiro[4.5]decan-8-yl)ethyl)-4-methylisobenzofuran-1(3H)-one]	135
Cc1c([C@@H](O)CN2CCC3(CC2)CCN(c2ccc(S(C)(=O)=O)cc2)C3)ccc2c1COC2=O [Example 31, (R)-5-(1-Hydroxy-2-(2-(4-(methylsulfonyl)phenyl)-2,8-diazaspiro[4.5]decan-8-yl)ethyl)-4-methylisobenzofuran-1(3H)-one]	41.3
Cc1c([C@@H](O)CN2CCC3(CCN(c4ccc(S(C)(=O)=O)cn4)CC3)C2)ccc2c1COC2=O [Example 64, 5-[(1R)-1-Hydroxy-2-{8-[5-(methylsulfonyl)pyridin-2-yl]-2,8-diazaspiro[4.5]dec-2-yl}ethyl]-4-methyl-2-benzofuran-1(3H)-one hydrochloride]	272
Cc1c([C@@H](O)CN2CCC3(CC2)CCN(c2ccc(C#N)nc2)C3)ccc2c1COC2=O [Example 87]	88.7
Cc1c([C@@H](O)CN2CCC3(CC2)CCN(c2cnc(C#N)cn2)C3)ccc2c1COC2=O [Example 83]	4.7
N#Cc1ccc(N2CCC3(CCN(CC(O)c4ccc5c(c4C4CC4)COC5=O)CC3)C2)nc1 (stereo not drawn) [Example 26, 6-(8-(2-(4-Cyclopropyl-1-oxo-1,3-dihydroisobenzofuran-5-yl)-2-hydroxyethyl)-2,8-diazaspiro[4.5]decan-2-yl)nicotinonitrile]	458
Cc1c([C@@H](O)CN2CCC3(CC2)CC(=O)N(c2ccc(S(C)(=O)=O)c(F)c2)C3)ccc2c1COC2=O [Example 67, 2-[3-Fluoro-4-(methylsulfonyl)phenyl]-8-[(2R)-2-hydroxy-2-(4-methyl-1-oxo-1,3-dihydro-2-benzofuran-5-yl)ethyl]-2,8-diazaspiro[4.5]decan-3-one hydrochloride]	68
Cc1c([C@@H](O)CN2CCC3(CC2)CCN(c2ncc(-n4cnnn4)cn2)C3)ccc2c1COC2=O [Example 15, (R)-5-(2-(2-(5-(1H-tetrazol-1-yl)pyrimidin-2-yl)-2,8-diazaspiro[4.5]decan-8-yl)-1-hydroxyethyl)-4-methylisobenzofuran-1(3H)-one]	57
COc1cc(N2CCC3(CCN(C[C@H](O)c4ccc5c(c4C)COC5=O)CC3)C2)ncc1C#N [Example 7, (R)-6-(8-(2-Hydroxy-2-(4-methyl-1-oxo-1,3-dihydroisobenzofuran-5-yl)ethyl)-2,8-diazaspiro[4.5]decan-2-yl)-4-methoxynicotinonitrile]	21.5
CCS(=O)(=O)c1cnc(N2CC3(CCN(C[C@H](O)c4ccc5c(c4C)COC5=O)CC3)OC2=O)cn1 [Example 93, (R)-3-(5-(Ethylsulfonyl)pyrazin-2-yl)-8-(2-hydroxy-2-(4-methyl-1-oxo-1,3-dihydroisobenzofuran-5-yl)ethyl)-1-oxa-3,8-diazaspiro[4.5]decan-2-one]	148
Cc1c([C@@H](O)CN2CCC3(CC2)CCN(c2ccc(S(C)(=O)=O)cn2)C3)ccc2c1COC2=O [Example 22, (R)-5-(1-Hydroxy-2-(2-(5-(methylsulfonyl)pyridin-2-yl)-2,8-diazaspiro[4.5]decan-8-yl)ethyl)-4-methylisobenzofuran-1(3H)-one]	41.1
Cc1c([C@@H](O)CN2CCC3(CC2)CN(c2ccc(S(C)(=O)=O)cc2)C(=O)O3)ccc2c1COC2=O [Example 94, (R)-8-(2-Hydroxy-2-(4-methyl-1-oxo-1,3-dihydroisobenzofuran-5-yl)ethyl)-3-(4-(methylsulfonyl)phenyl)-1-oxa-3,8-diazaspiro[4.5]decan-2-one]	159
COc1ccc(C#N)cc1N1CCC2(CCN(C[C@H](O)c3ccc4c(c3C)COC4=O)CC2)C1 [Example 85]	234
Cc1c(C(O)CN2CCC3(CC2)CCN(c2ncccc2C#N)CC3)ccc2c1COC2=O (stereo not drawn) [Example 107]	180
Cc1c([C@@H](O)CN2CCC3(CC2)CCN(c2ccc(S(C)(=O)=O)nn2)C3=O)ccc2c1COC2=O [Example 57, (R)-8-(2-Hydroxy-2-(4-methyl-1-oxo-1,3-dihydroisobenzofuran-5-yl)ethyl)-2-(6-(methylsulfonyl)pyridazin-3-yl)-2,8-diazaspiro[4.5]decan-1-one]	59.2
Cc1cc2c(cc1C(O)CN1CCC3(CC1)CCN(c1ccc(C#N)cn1)C3)COC2=O (single isomer, unassigned) [Example 24B, 6-(8-(2-Hydroxy-2-(6-methyl-1-oxo-1,3-dihydroisobenzofuran-5-yl)ethyl)-2,8-diazaspiro[4.5]decan-2-yl)nicotinonitrile]	31.4
Cc1c([C@@H](O)CN2CCC3(CC2)CCN(c2ccc(C#N)nn2)CC3)ccc2c1COC2=O [Example 105, (R)-6-(9-(2-hydroxy-2-(4-methyl-1-oxo-1,3-dihydroisobenzofuran-5-yl)ethyl)-3,9-diazaspiro[5.5]undecan-3-yl)pyridazine-3-carbonitrile]	13.5
C[C@H]1Cc2cc(C(O)CN3CCC4(CC3)CN(c3ccc(C#N)cn3)C4)ccc2C(=O)O1 (stereo partly drawn) [Example 52A, 6-(7-(2-Hydroxy-2-((S)-3-methyl-1-oxoisochroman-6-yl)ethyl)-2,7-diazaspiro[3.5]nonan-2-yl)nicotinonitrile]	48.7
Cc1c([C@@H](O)CN2CCC3(CC2)CN(c2ccc(S(C)(=O)=O)nn2)C3)ccc2c1COC2=O [Example 48, (R)-5-(1-Hydroxy-2-(2-(6-(methylsulfonyl)pyridazin-3-yl)-2,7-diazaspiro[3.5]nonan-7-yl)ethyl)-4-methylisobenzofuran-1(3H)-one]	71
Cc1cc2c(cc1C(O)CN1CCC3(CC1)CCN(c1ccc(S(C)(=O)=O)cn1)C3)COC2=O (stereo not drawn) [Example 39, 5-(1-Hydroxy-2-(2-(5-(methylsulfonyl)pyridin-2-yl)-2,8-diazaspiro[4.5]decan-8-yl)ethyl)-6-methylisobenzofuran-1(3H)-one]	195
